# Test results reported in patent US5919464A, “Treatment of aberrant cellular states with biomodulators” (University of New Mexico, priority 1993, dated 1999).
# Legend:
# [1] = system: human peripheral blood leukocytes (HPBLs); experiment: HPBL plaque forming cell (PFC) assay / IgG production in vitro (differentiation); format: cell-based; conditions: for Stimulation of IgG Production, Concentration / Stimulation of IgG Production, Percent / Inhibitory Concentration (inhibiting nonspecific IgG production below normal production): HPBL; for Stimulation of IgG Production, Percent: at the stimulating concentration
# Text: (§1) C. […] This model is used to correlate the effects of biomodulators on the expression of immune response in vitro. The plaque assay disclosed in this reference is used for the determination of the effect of biomodulators on the specificity, class and subclass of individual clones.
# (§2) A. Purification of PWM and separation of the differentiative and proliferative functions Pokeweed Mitogen (PWM) and three of its isomitogens, Pa-1 and Pa-5, which are primarily differentiative in nature, and Pa-2 which is primarily proliferative, were prepared according to the method of Waxdal, supra, except that the iso-mitogens were finally purified by isoelectric focusing.
# Human peripheral blood leukocytes were cultured in a standard tissue culture medium. Aliquots of these cultured cells (1,000,000 cells/ml medium) were cultured for 6 hours, and the specified amount of Formula II compound was added; the cells were then cultured for an additional 90 hours. Sheep red blood cells (SRBC) conditioned with class-specific (IpG) goat anti-human antiserum (1:400) for 2 hours; then guinea pig complement (2%) for 2 hours were conjugated to Protein A as described in detail in Radioimmunoimaging and Radioimmunotherapy, Eds.
# [2] = system: human peripheral blood leukocytes (HPBLs); experiment: HPBL 3H-thymidine incorporation (proliferation); format: cell-based; parameters: reference not given here
# Text: as §1, §2
# HMGCoA reductase = target: T1, HMGCoA reductase (Rattus norvegicus, UniProt P51639); experiment: inhibition of rat liver HMGCoA reductase activity; format: biochemical; parameters: from tissue; host or cells: rat liver; conditions: rat liver
# T1 sequence (P51639 1-887): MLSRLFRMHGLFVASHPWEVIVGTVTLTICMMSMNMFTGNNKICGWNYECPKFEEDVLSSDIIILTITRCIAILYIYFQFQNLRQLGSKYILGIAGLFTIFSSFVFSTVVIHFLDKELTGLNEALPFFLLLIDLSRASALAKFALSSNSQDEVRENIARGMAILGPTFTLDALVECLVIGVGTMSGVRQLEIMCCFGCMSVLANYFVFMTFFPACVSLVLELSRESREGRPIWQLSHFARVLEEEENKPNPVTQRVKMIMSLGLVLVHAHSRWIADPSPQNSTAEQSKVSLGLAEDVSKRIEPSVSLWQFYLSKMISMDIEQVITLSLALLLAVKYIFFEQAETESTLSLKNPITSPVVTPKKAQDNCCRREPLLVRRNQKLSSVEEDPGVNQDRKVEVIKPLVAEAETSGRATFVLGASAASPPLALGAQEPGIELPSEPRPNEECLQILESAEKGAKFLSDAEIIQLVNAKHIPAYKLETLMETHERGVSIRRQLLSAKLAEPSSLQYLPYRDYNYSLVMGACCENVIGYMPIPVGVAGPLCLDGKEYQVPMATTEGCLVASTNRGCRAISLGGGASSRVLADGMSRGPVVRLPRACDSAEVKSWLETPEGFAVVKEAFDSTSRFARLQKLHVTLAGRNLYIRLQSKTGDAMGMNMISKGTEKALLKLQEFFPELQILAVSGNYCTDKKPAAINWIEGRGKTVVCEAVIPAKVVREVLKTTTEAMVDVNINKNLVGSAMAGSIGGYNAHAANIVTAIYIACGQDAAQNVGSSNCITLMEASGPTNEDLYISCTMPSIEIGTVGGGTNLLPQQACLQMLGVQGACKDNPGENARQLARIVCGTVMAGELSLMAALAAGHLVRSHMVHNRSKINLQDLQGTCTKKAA
# Text: reductase activity; data obtained according to Example IA.
# canine glioma tumors = experiment: canine glioma tumor growth in nude rats, various biomodulators; format: in vivo; conditions: in words
# Experimental: C57 BL/6 mice were injected I.M. with B-16 melanoma cells, maintained in culture in the right flank or shoulder. Tumor growth was monitored on a daily basis by physical measurement and by MRI/MRS on a weekly basis. Treatment routes were via intraperitoneal injection using various CAD between 1 μg and 0.001 μg per animal on a M, W, F injection schedule. The animals were terminated by CO2 when the tumors had become 1.0 cm in diameter. Lung metastases were counted.
# Various biomodulators were tested in vivo for their effects on canine glioma tumors established and monitored as above for mice, but in nude rats. […] FIGS. 29-30 show the progression of the tumors over time with treatment with, respectively, PWM, Sw, CAD, HHD-2, HHD-3, HHD-4, and HHD-7.
# P-815 mastocytoma cells = experiment: P-815 cytotoxic T lympholysis / cell mediated lympholysis (CML), spleen cells treated in culture; format: cell-based, mouse; conditions: hydrocortisone 2 mg given day -2; hydroxyurea 10^-5M; in words
# Experimental: In this case the P-815 is injected into the H-2 incompatible host and in the Brunner and Cerotini model an antigen specific lympholysis event occurs with an optimum on day 11 at an effector/target ratio of 100:1 with 30% lysis If the spleens of the injected animals are removed on day three there is no observable cytotoxicity; however, if the spleen cells are treated with biomodulator (in this case PWM at 100 ng) there is an enormous increase in the cytotoxicity event. […] The slope represents a measure of the efficiency of kill and in the biomodulator treated cells is approximately 1.6 versus 0.24 for the control antigen driven response on day 11. This represents a seven fold increase in simple cytotoxicity efficiency. Again this is concentration dependent and the kinetics of the response are such that if the cells are left in culture for times which approximate the in vivo 11 day optimum then the lysis values approach the untreated controls. […]
# P 815 mastocytoma cells are grown in culture or as an ascites (DBA H-2/d) and injected into C57BL/6J mice (H-2/b). […] The specificity of the response is assessed by testing the cytotoxicity against EL-4 cells ([…]) which are NK insensitive and histoincompatible with the original target. […]
# Seven effector/target ratios are tested and the percent lysis calculated. […]
# canine glioma = experiment: in vivo inhibition of canine glioma in dog brain (NMR)
# Experimental: Canine glioma was implanted surgically into the brains of four outbred dogs (2×10^6 cells). This procedure normally causes death by tumor growth in 14-28 days.
# Simultaneous with implantation, the dogs were each placed on a regimen of compounds according to the invention, Compounds IIa', IIe' and TF004 in various dosages were administered on alternate days (M, W, F) by I.P. injection in phosphate buffered saline.
# Tumor progress was assessed at weekly intervals by NMR, employing GdDTPA as imaging agent. This method illuminates vascularization at the surface of the tumor, and provides images which correlate well with neuropathological observations.
# canine glioma cells = experiment: in vivo inhibition of canine glioma in nude rats, compound IIc'
# Experimental: Fifty four nude rats (Harlan) were injected in the right flank with 5×10^6 canine glioma cells. Animals at the time of injection were between 52 and 63 days old and weighed approximately 200 g. The rats were divided into 7 groups, each group having a total number of 7 rats except for the control group, which totalled 12 animals. Compound IIc' was administered to the experimental animals at one of the following doses for each experimental group: 100 μg/kg, 10 μg/kg, 1 μg/kg, 0.1 μg/kg, 0.01 μg/kg and 0.001 μg/kg (phosphate buffer saline, M, W, F, I.P.). The control animals were injected with PBS (phosphate buffered saline) only. The volume of each injection was 100 μl. The injections of drug were simultaneously begun with injection of tumor cells. The animals were injected with the appropriate dosage of drug ([…]) by I.P. injection and tumor length, width and depth were measured using caliphers each Monday, Wednesday and Friday (M, W, F) morning for approximately 9 weeks. Each point on the graphs represents the total of all rats for each group. […] The data were normalized for the greater number of control animals by multiplying the total tumor volume for the control animals by 7/12.
# CG tumor = experiment: chromium-release cell-mediated lympholysis vs. CG tumor in a dog; format: in vivo
# Text: Cellular immune response reflected the results reported in III, 1 above. […] This also is in the absence of CG antigen exposure. […] Thus, both cellular and humoral immunity appear to be modulatable in the absence of antigen by the compounds of the instant invention.
# [3] = system: canine glioma (CG) specific IgG antibody; experiment: CG-specific antibody (IgG) titer in a dog; format: in vivo
# [4] = 1 ng/kg I.P., treatment begun on day of implantation
smiles,measurement,setting,value
"CC(C)OC(=O)C[C@H](O)C[C@H](O)/C=C/c1c(C(C)C)nc(-c2ccccc2)n1-c1ccc(F)cc1 [IId, reference compound]","Stimulation of IgG Production, Concentration",[1],100000 pM
same,"Stimulation of IgG Production, Percent",[1],320%
same,Proliferation ((3H) thymidine incorporation into DNA),[2],0.66
same,IC50,HMGCoA reductase,2 nM
CC(C)OC(=O)C[C@H](O)C[C@H](O)/C=C/c1c(C(C)C)nc(-c2ccccc2)n1-c1ccc(F)cc1 [HHD-3],canine glioma tumor regression in nude rats,canine glioma tumors,"showed no regression effect, just delay of the control growth pattern"
C[C@]12CCC(=O)C=C1CC[C@@H]1[C@@H]2[C@@H](O)C[C@@]2(C)[C@H]1CC[C@]2(O)C(=O)CO [Hydrocortisone],influence on the biomodulator effect on CML,P-815 mastocytoma cells,reduced the biomodulator effect
CC(C)OC(=O)C[C@@H](O)C[C@@H](O)/C=C/c1c(C(C)C)nc(-c2ccccc2)n1-c1ccc(F)cc1 [IIa],Inhibitory Concentration (inhibiting nonspecific IgG production below normal production),[1],none found
same,"Stimulation of IgG Production, Concentration",[1],200 pM
same,"Stimulation of IgG Production, Percent",[1],1700%
same,Proliferation ((3H) thymidine incorporation into DNA),[2],0.98
same,IC50,HMGCoA reductase,3150 nM
NC(=O)NO [Hydroxyurea],influence on the biomodulator effect on CML,P-815 mastocytoma cells,does not inhibit the biomodulator effect on CML
CC(C)c1c(/C=C/C(O)CC(O)CC(=O)O)n(-c2ccc(F)cc2)c2ccccc12 (stereo not shown) [TF-004],day of complete regression,canine glioma; [4],≤ 21 days
same,day of substantial regression,canine glioma; [4],≤ 15 days
same,day of complete regression,canine glioma; treatment begun on Day 11,≤ 30 days
same,day of substantial regression,canine glioma; treatment begun on Day 11,≤ 21 days
CC(C)OC(=O)C[C@@H](O)C[C@H](O)/C=C/c1c(C(C)C)nc(-c2ccccc2)n1-c1ccc(F)cc1 [IIb],Inhibitory Concentration (inhibiting nonspecific IgG production below normal production),[1],none found
same,"Stimulation of IgG Production, Concentration",[1],200 pM
same,"Stimulation of IgG Production, Percent",[1],1700%
same,Proliferation ((3H) thymidine incorporation into DNA),[2],1.0
same,IC50,HMGCoA reductase,1350 nM
CC(C)c1nc(-c2ccccc2)n(-c2ccc(F)cc2)c1/C=C/[C@H](O)C[C@H](O)CC(=O)O [TF-002],day by which tumor regressed,"canine glioma; pre-treated, 10 ng/kg I.P. M, W, F",≤ 19 days
same,later tumor status,"canine glioma; pre-treated, 10 ng/kg, in words",free of tumor
CC(C)OC(=O)C[C@H](O)C[C@@H](O)/C=C/c1c(C(C)C)nc(-c2ccccc2)n1-c1ccc(F)cc1 [Compound IIc'],"optimal dose in vivo, equivalent concentration with uniform distribution",canine glioma cells; 100 ng/kg,250 pM
same,cytostatic activity at other doses,"canine glioma cells; 10 and 100 μg/kg, 1 ng/kg, in words",Little or no cytostatic activity
same,most effective dosage for inhibition of canine glioma,"canine glioma cells; I.P., M, W, F",100 ng/kg
same,slope M of Y = MX + B (linear regression of toxicity),"CG tumor; December 14, 1987",0.05
same,slope M of Y = MX + B (linear regression of toxicity),"CG tumor; February 9, 1988",0.35
same,slope M of Y = MX + B (linear regression of toxicity),"CG tumor; February 17, 1988",0.75
same,slope M of Y = MX + B (linear regression of toxicity),"CG tumor; March 31, 1988",0.05
same,CML,"CG tumor; additional 2 months of administration, no CG antigen, in words",significant increase in CML
same,CG-specific CML,"CG tumor; after 14 days, I.P., M, W, F, in words",only baseline levels of CG-specific CML were present
same,antibody titer versus control without antigen,[3]; in words,titers of antibody increased over the control antibody titer significantly
same,IC-50% Titer (Anti-CG),"[3]; treated 2+ months, tumor regressed",Baseline Values
same,Inhibitory Concentration (inhibiting nonspecific IgG production below normal production),[1],none found
same,"Stimulation of IgG Production, Concentration",[1],100 pM
same,"optimal dose in vitro, immune stimulation",[1]; HPBL assay,100 pM
same,"Stimulation of IgG Production, Percent",[1],6200%
same,Proliferation ((3H) thymidine incorporation into DNA),[2],1.2
CC(C)OC(=O)C[C@H](O)C[C@@H](O)/C=C/c1c(C(C)C)nc(-c2ccccc2)n1-c1ccc(F)cc1 [HHD-7],canine glioma tumor regression in nude rats,canine glioma tumors,showed the best regression
